US12240854B2, “TRAF 6 inhibitors” (Helmholtz Zentrum München - Deutsches Forschungszentrum für …, priority 2018, dated 2025)

These compounds were tested against T1, TRAF6WTStrepII-Ubc13FH interaction (Homo sapiens, UniProt Q9Y4K3) (assay: ALPHAScreen TRAF6-Ubc13 interaction assay). Conditions: TRAF6 100 nM, Ubc13FH 75 nM; class symbols; read-out: IC50 Alphascreen (inhibition of TRAF6-UBC13 interaction).
T1 construct: RING-Zincfinger1 (RZ1) domain (residues 50-159) of human TRAF6 wildtype; made in house; host or cells: E. coli BL21 codon plus RIPL
T1 sequence (Q9Y4K3 with tags, fused parts or gaps): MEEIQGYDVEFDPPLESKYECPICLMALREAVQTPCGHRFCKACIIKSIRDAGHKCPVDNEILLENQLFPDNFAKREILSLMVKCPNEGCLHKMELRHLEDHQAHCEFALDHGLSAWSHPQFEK
Type: binding
Description: In order to identify small molecules that specifically target the RZ1 domain of TRAF6 and thereby prevent its binding to Ubc13, the ALPHAScreen technology (PerkinElmer) was chosen to detect TRAF6WTStrepII-Ubc13FH interaction in High-Throughput-Screenings as well as Structure Activity Relationship (SAR) analysis.
For performance of an automated ALPHAScreen assay, all following components were pre-diluted in ALPHAScreen buffer (1×PBS, 0.5% BSA, 0.01% Tween-20). First, the TRAF6 protein (end concentration 100 nM, 30 μL volume) was added to 384-well-opti-plates involving the MultiFlo dispensing system (BioTek) followed by transfer of the compounds via the Sciclone G3 transfer station (PerkinElmer). After addition of Ubc13FH (end concentration 75 nM, 10 μL volume) with the MultiFlo system and incubation for one hour at room temperature, both beads (Strep-Tactin Alpha Donor beads and Nickel-Chelate acceptor beads; end concentrations 4 μg each, 10 μL volume each) were mixed and added using the MultiFlo system in subdued light. Read-out of the plates occurred after another hour of incubation at room temperature. Statistical parameters including the coefficient of variation, Z′ factor and signal window were calculated to determine the quality of the HTS campaign. To evaluate the efficacy of the compounds, ALPHAScreen units of compound-treated samples were referred to DMSO control treated samples. Thereby, the TRAF6D57K mutant served as the control for minimum signal and was included on every plate of the screening. Compounds that inhibited TRAF6WTStrepII-Ubc13FH by more than 25% were considered as actives. After elimination of ALPHAScreen frequent hitter compounds and His-tag frequent hitters (Schorpp, K., I. Rothenaigner, E. Salmina, et al., Identification of Small-Molecule Frequent Hitters from AlphaScreen High-Throughput Screens. J Biomol Screen, 2014. 19(5): p. 715-26), 178 compounds were defined as primary hits and were subsequently tested in five-point serial dilution assays (2.5-40 μM) in TRAF6WTStrepII-Ubc13FH ALPHAScreen experiments. Only compounds with dose-dependent effects on TRAF6WTStrepII-Ubc13FH (n=27) were taken for further research. For analog testing, all compounds were analyzed in ten-point titration (0.2-100 μM) in TRAF6WTStrepII-Ubc13FH ALPHAScreen experiments. In parallel, the compounds were tested in the ALPHAScreen TruHits Kit (PerkinElmer) to rule out unspecific interference with the ALPHAScreen technology.
Compound COC(=O)c1ccc(CN2CCN(C(=O)CCc3c(C)nn(-c4ccc5nnc(C)n5n4)c3C)CC2)cc1 [Example 96] has an IC50 of no more than 3 µM.
In the case of Cc1nn(-c2ccc3nnc(C)n3n2)c(C)c1CCC(=O)N1CCN(Cc2ccc(C(=O)O)cc2)CC1 [Example 97], the IC50 is reported as no more than 3 µM.
Compound COC(=O)c1cccc(CN2CCN(C(=O)CCc3c(C)nn(-c4ccc5nnc(C)n5n4)c3C)CC2)c1 [Example 98] has an IC50 of no more than 10 µM.
For Cc1nn(-c2ccc3nnc(C)n3n2)c(C)c1CCC(=O)N1CCN(Cc2cccc(C(=O)O)c2)CC1 [Example 99], the IC50 was no more than 3 µM.
In the case of Cc1nn(-c2ccc3nnc(C)n3n2)c(C)c1CCC(=O)N1CCN(Cc2cccc(C(N)=O)c2)CC1 [Example 100], the inhibition at 100 µM is reported as no less than 30%.
Work on CNC(=O)c1cccc(CN2CCN(C(=O)CCc3c(C)nn(-c4ccc5nnc(C)n5n4)c3C)CC2)c1 [Example 101] yielded an IC50 of no more than 30 µM.
Cc1nn(-c2ccc3nnc(C)n3n2)c(C)c1CCC(=O)N1CCNC(Cc2ccccc2)C1 (stereo not shown) [Example 102] was tested, and the IC50 was no more than 30 µM.
Cc1nn(-c2ccc3nnc(C)n3n2)c(C)c1CCC(=O)N1CCCC(Cc2ccccc2)C1 (stereo not shown) [Example 103] showed an inhibition at 100 µM of no less than 30%.
For Cc1nn(-c2ccc3nnc(C)n3c2)c(C)c1CCC(=O)N1CCC(CCc2ccccc2)CC1 [Example 104], the inhibition at 100 µM was no less than 30%.
With Cc1nn(-c2ccc3nnc(C)n3c2)c(C)c1CCC(=O)N1CCN(Cc2ccccc2)CC1 [Example 105] the inhibition at 100 µM was no less than 30%.
Compound Cc1nn(-c2ccc3nnc(C)n3c2)c(C)c1CCC(=O)N1CCCC(Cc2ccccc2)C1 (stereo not shown) [Example 106] has an inhibition at 100 µM of no less than 30%.
Cc1nn(-c2ccc3nnc(C)n3c2)c(C)c1CCC(=O)N1CCC(Cc2ccccc2)C1 (stereo not shown) [Example 107] showed an inhibition at 100 µM of no less than 30%.
Work on CC(=O)c1ccc(CN2CCN(C(=O)CCc3c(C)nn(-c4ccc5nnc(C)n5n4)c3C)CC2)cc1 [Example 108] yielded an IC50 of no more than 10 µM.
Work on Cc1nn(-c2ccc3nnc(C)n3n2)c(C)c1CCC(=O)N1CCN(Cc2ccc(C#N)cc2)CC1 [Example 109] yielded an IC50 of no more than 30 µM.
Cc1nn(-c2ccc3nnc(C)n3n2)c(C)c1CCC(=O)N1CCN(Cc2ccc(C(F)(F)F)cc2)CC1 [Example 110] gave an IC50 of no more than 30 µM.
With Cc1nn(-c2ccc3nnc(C)n3n2)c(C)c1CCC(=O)N1CCN(Cc2ccc(I)cc2)CC1 [Example 111] the IC50 was no more than 30 µM.
In the case of CC(=O)Nc1ccc(CN2CCN(C(=O)CCc3c(C)nn(-c4ccc5nnc(C)n5n4)c3C)CC2)cc1 [Example 112], the IC50 is reported as no more than 10 µM.
With Cc1nn(-c2ccc3nnc(C)n3n2)c(C)c1CCC(=O)N1CCN(Cc2ccc(-c3ccccc3)cc2)CC1 [Example 113] the IC50 was no more than 10 µM.
Cc1nn(-c2ccc3nnc(C)n3n2)c(C)c1CCC(=O)N1CCN(Cc2ccc(N(C)C)cc2)CC1 [Example 114] was tested, and the IC50 was no more than 10 µM.
Cc1nn(-c2ccc3nnc(C)n3n2)c(C)c1CCC(=O)N1CCN(Cc2ccc([N+](=O)[O-])cc2)CC1 [Example 115] was tested, and the IC50 was no more than 3 µM.
In the case of Cc1nn(-c2ccc3nnc(C)n3n2)c(C)c1CCC(=O)N1CCN(Cc2ccc(S(C)(=O)=O)cc2)CC1 [Example 116], the IC50 is reported as no more than 3 µM.
In the case of Cc1nn(-c2ccc3nnc(C)n3n2)c(C)c1CCC(=O)N1CCN(Cc2ccc(NS(C)(=O)=O)cc2)CC1 [Example 117], the IC50 is reported as no more than 10 µM.
Work on Cc1nn(-c2ccc3nnc(C)n3n2)c(C)c1CCC(=O)N1CCN(Cc2ccc(C(N)=O)cc2)CC1 [Example 118] yielded an IC50 of no more than 10 µM.
Cc1nn(-c2ccc3nnc(C)n3n2)c(C)c1CCC(=O)N1CCC(C)(Cc2ccccc2)C1 (stereo not shown) [Example 119] was tested, and the IC50 was no more than 3 µM.
For Cc1cc(C(=O)O)ccc1CN1CCN(C(=O)CCc2c(C)nn(-c3ccc4nnc(C)n4n3)c2C)CC1 [Example 121], the IC50 was no more than 3 µM.
Work on Cc1cc(CN2CCN(C(=O)CCc3c(C)nn(-c4ccc5nnc(C)n5n4)c3C)CC2)ccc1[N+](=O)[O-] [Example 122] yielded an IC50 of no more than 3 µM.
In the case of Cc1nn(-c2ccc3nnc(C)n3n2)c(C)c1CCC(=O)N1CCN(Cc2ccc(O)c(Cl)c2)CC1 [Example 123], the IC50 is reported as no more than 3 µM.
CC(=O)c1cccc(CN2CCN(C(=O)CCc3c(C)nn(-c4ccc5nnc(C)n5n4)c3C)CC2)c1 [Example 125] gave an IC50 of no more than 3 µM.
With Cc1nn(-c2ccc3nnc(C)n3n2)c(C)c1CCC(=O)N1CCN(Cc2cccc(C#N)c2)CC1 [Example 126] the IC50 was no more than 3 µM.
Compound Cc1nn(-c2ccc3nnc(C)n3n2)c(C)c1CCC(=O)N1CCN(Cc2ccccc2C#N)CC1 [Example 127] has an IC50 of no more than 10 µM.
For Cc1nn(-c2ccc3nnc(C)n3n2)c(C)c1CCC(=O)N1CCN(Cc2cccc(-c3ccccc3)c2)CC1 [Example 128], the IC50 was no more than 10 µM.
Cc1cc(CN2CCN(C(=O)CCc3c(C)nn(-c4ccc5nnc(C)n5n4)c3C)CC2)cc([N+](=O)[O-])c1 [Example 129] was tested, and the IC50 was no more than 3 µM.
Compound Cc1nn(-c2ccc3nnc(C)n3n2)c(C)c1CCC(=O)N1CCN(Cc2ccc(S(N)(=O)=O)cc2)CC1 [Example 130] has an IC50 of no more than 3 µM.
Cc1nn(-c2ccc3nnc(C)n3n2)c(C)c1CCC(=O)N1CCN(Cc2ccc(C(=O)O)c(F)c2)CC1 [Example 131] gave an IC50 of no more than 3 µM.
Cc1nn(-c2ccc3nnc(C)n3n2)c(C)c1CCC(=O)N1CCN(Cc2ccc(Cl)cc2Cl)CC1 [Example 132] was tested, and the IC50 was no more than 10 µM.
In the case of Cc1cccc(CN2CCN(C(=O)CCc3c(C)nn(-c4ccc5nnc(C)n5n4)c3C)CC2)c1 [Example 133], the IC50 is reported as no more than 10 µM.
Work on Cc1nn(-c2ccc3nnc(C)n3n2)c(C)c1CCC(=O)N1CCN(Cc2cccc(I)c2)CC1 [Example 134] yielded an IC50 of no more than 3 µM.
Work on Cc1nn(-c2ccc3nnc(C)n3n2)c(C)c1CCC(=O)N1CCN(Cc2ccc(Cl)c(Cl)c2)CC1 [Example 135] yielded an IC50 of no more than 3 µM.
Work on Cc1nn(-c2ccc3nnc(C)n3n2)c(C)c1CCC(=O)N1CCN(Cc2ccc(C(F)(F)F)c(F)c2)CC1 [Example 136] yielded an IC50 of no more than 10 µM.
With Cc1nn(-c2ccc3nnc(C)n3n2)c(C)c1CCC(=O)N1CCN(Cc2ccc3cn[nH]c3c2)CC1 [Example 137] the IC50 was no more than 10 µM.
In the case of Cc1nn(-c2ccc3nnc(C)n3n2)c(C)c1CCC(=O)N1CCN(Cc2cccc3ncccc23)CC1 [Example 138], the IC50 is reported as no more than 10 µM.
Cc1ccc(CN2CCN(C(=O)CCc3c(C)nn(-c4ccc5nnc(C)n5n4)c3C)CC2)cc1 [Example 139] showed an IC50 of no more than 30 µM.
Cc1nn(-c2ccc3nnc(C)n3n2)c(C)c1CCC(=O)N1CCN(Cc2ccc(F)c(F)c2)CC1 [Example 140] gave an IC50 of no more than 30 µM.
Cc1nn(-c2ccc3nnc(C)n3n2)c(C)c1CCC(=O)N1CCN(Cc2cccc3ccccc23)CC1 [Example 141] showed an IC50 of no more than 30 µM.
Compound Cc1nn(-c2ccc3nnc(C)n3n2)c(C)c1CCC(=O)N1CCN(Cc2c(Cl)cccc2Cl)CC1 [Example 142] has an IC50 of no more than 10 µM.
Cc1nn(-c2ccc3nnc(C)n3n2)c(C)c1CCC(=O)N1CCN(Cc2ccc(Cl)cc2)CC1 [Example 143] gave an IC50 of no more than 30 µM.
Cc1nn(-c2ccc3nnc(C)n3n2)c(C)c1CCC(=O)N1CCN(Cc2ccccc2Cl)CC1 [Example 144] gave an IC50 of no more than 10 µM.
Cc1nn(-c2ccc3nnc(C)n3n2)c(C)c1CCC(=O)N1CCC(CCc2ccccc2)CC1 [Example 145] was tested, and the IC50 was no more than 10 µM.
With Cc1nn(-c2ccc3nnc(C)n3n2)c(C)c1CCC(=O)N1CCN(Cc2cc(F)c(O)c(F)c2)CC1 [Example 146] the IC50 was no more than 3 µM.
Cc1nn(-c2ccc3nnc(C)n3n2)c(C)c1CCC(=O)N1CCN(Cc2cccc([N+](=O)[O-])c2)CC1 [Example 149] gave an IC50 of no more than 10 µM.
Cc1nn(-c2ccc3nnc(C)n3n2)c(C)c1CCC(=O)N1CCN(Cc2ccc3cccnc3c2)CC1 [Example 150] showed an IC50 of no more than 10 µM.
Cc1nn(-c2ccc3nnc(C)n3n2)c(C)c1CCC(=O)N1CCN(Cc2cccc(C(N)=O)c2)CC1 [Example 151] gave an IC50 of no more than 10 µM.
